Legend:
[1] = test system: primary human adipocytes; assay: Extracellular acidification and oxygen consumption rates (XF-Analyzer) in human adipocytes; assay type: cell-based; conditions: adipocytes differentiated and cultured in sedoheptulose containing media vs controls
Procedure: Stromal vascular fraction cells (SVFs) from subcutaneous white adipose tissue of a patient undergoing abdominal surgery were isolated as described before (Lindroos et al, Cell Metab. (2013), July 2; 18(1):62-74.). Briefly, adipose tissue was digested with Collagenase II (Worthington) and filtered. SVFs were separated from mature adipocytes by centrifugation, followed by the lysis of erythrocytes in the SVF-fraction (Buffer EL, Qiagen). The purified SVFs were cultured in DMEM/F12, 10% FBS (Gibco, Life Technologies). As soon as the cells reached confluence, they were washed with DMEM/F12 w/o glucose (Biowest) and the medium was replaced by DMEM/F12 with a total carbohydrate load of 3 g/L, containing 1.5 g/L glucose and fructose or 1 g/L each of glucose, fructose, and sedoheptulose, respectively. […]
(§1) The XF-Analyzer (Seahorse Bio.) was used to measure changes in cellular metabolism induced by different carbohydrates. Extracellular acidification rates (ECAR, mpH/min) and oxygen consumption rates (OCR, pmoles/min) were recorded in primary human adipocytes and primary murine hepatocytes according to the manufacture instructions. […] Changes induced by the different carbohydrate sources were expressed as relative change in % to illustrate the effect of each carbon source.

[2] = test system: mature murine adipocytes; assay: Mature murine adipocytes ceiling culture, cytokine mRNA by RT-PCR; assay type: cell-based, mouse; conditions: three days in GFS vs GF media
Procedure: Anterior and posterior subcutaneous adipose tissue and epididymal white adipose tissue was isolated from transgenic CARKL-mice and wild-type littermate controls. Adipose tissue was digested as described above for the human sample. After centrifugation, the layer of floating mature adipocytes was removed and re-centrifuged at 100 rcf for 10 minutes. 150 μL, of packed adipocytes were cultured under a floating coverslip in six-well plates, in DMEM/F12, 15% calf serum (PAA). 24 hours after isolation, the wells were washed twice with PBS and the medium was exchanged to DMEM/F12 with a total carbohydrate load of 3 g/L, containing 1.5 g/L glucose and fructose, or 1 g/L each of glucose, fructose and sedoheptulose, respectively. Three days later, the cells were harvested for RNA isolation using TRIreagent (Sigma).
(§2) Briefly, total RNA was extracted and reverse-transcribed using commercial kits (QIAGEN, Applied Biosystems). Quantitative real-time PCRs were performed on an AbiPRISM 7900HT real-time cycler using iTaq SYBR Green Supermix with ROX (BioRad) to measure CARKL, adiponectin, UCP-1, TNFa, IL-6, MCP-1, and beta-actin expression as previously described (Haschemi et al., Cell Metab. 15 (2012), 813-826). Expression of target gene was normalized to beta-actin expression. Relative expression of target gene was calculated by the delta-delta CT method.

[3] = test system: WT hepatocytes; assay: Glucose-induced ECAR in hepatocytes; assay type: cell-based, mouse; conditions: WT hepatocytes in GFS vs GF media, 1 hr carbohydrate starvation, then glucose 1 g/L, FIG. 4E
Procedure: (§3) Hepatocytes were isolated from male wild-type and CARKL overexpressing mice after the mice were sacrificed by hepatic in situ collagenase perfusion. After perfusion, the liver was quickly removed, minced, and filtered through a cell strainer (Fisher Scientific, Inc) into a 50 ml sterile tube. Hepatocytes in the resulting filtrate were purified from the nonparenchymal cells by centrifugation steps. The isolated hepatocytes were seeded into plates at a concentration of 0.25×10^6/ml in respective DMEM-media containing 10% FBS and indicated carbohydrate mixes at 3 g/L (glucose and fructose (GF), or glucose, fructose and sedoheptulose (GFS)) at least two days before experiments were performed.
as §1, with “instructions. Briefly, cells were seeded in seahorse cell plates at a density of 10^4 cells per well for adipocytes and 0.5×10^5 cells per well for hepatocytes.” for “instructions.”

[4] = test system: primary human adipocytes; assay: Human adipocyte culture in GF or GFS media, gene expression by RT-PCR; assay type: cell-based
Procedure: Stromal vascular fraction cells (SVFs) from subcutaneous white adipose tissue of a patient undergoing abdominal surgery were isolated as described before (Lindroos et al, Cell Metab. (2013), July 2; 18(1):62-74.). Briefly, adipose tissue was digested with Collagenase II (Worthington) and filtered. SVFs were separated from mature adipocytes by centrifugation, followed by the lysis of erythrocytes in the SVF-fraction (Buffer EL, Qiagen). The purified SVFs were cultured in DMEM/F12, 10% FBS (Gibco, Life Technologies). As soon as the cells reached confluence, they were washed with DMEM/F12 w/o glucose (Biowest) and the medium was replaced by DMEM/F12 with a total carbohydrate load of 3 g/L, containing 1.5 g/L glucose and fructose or 1 g/L each of glucose, fructose, and sedoheptulose, respectively. Two days after confluence (day 0), differentiation was induced by adding 1 μM dexamethasone, 1.74 μM insulin, 5 μM troglitazone, […], 17 μM pantothenic acid and 33 μM biotin. After two days, IBMX and dexamethasone were omitted, while insulin and troglitazone were removed on day 4. 50% of the medium was replaced on day 6. Two days later, the cells were harvested for RNA isolation (RNeasy mini kit, Qiagen).
as §2

[5] = test system: primary murine hepatocytes; assay: Primary murine hepatocyte culture, IL-6 mRNA by RT-PCR; assay type: cell-based, mouse; conditions: pre-cultured two days in GFS vs GF media, FIG. 3H
Procedure: as §3, §2

## O=C(CO)[C@@H](O)[C@H](O)[C@H](O)[C@H](O)CO [sedoheptulose, Sedoheptulose]
[1]; FIG. 3D
  cellular oxygen consumption rates (OCR): increased
[1]; FIG. 3E
  extracellular acidification rates (ECAR): comparable
[2]; FIG. 3F
  TNFa mRNA: less
[2]; FIG. 3G
  IL-6 mRNA: less
[3]
  glucose-induced ECAR: reduced
[4]; GFS media (1 g/L each glucose, fructose, sedoheptulose) vs GF (1.5 g/L each), eight days differentiation, FIG. 3A
  sedoheptulose kinase CARKL mRNA expression: increase
[4]; GFS vs GF treated cells, eight days, FIG. 3B
  adiponectin expression: increase
[4]; GFS vs GF treated cells, eight days, FIG. 3C
  UCP-1 expression: increase
[5]
  IL-6 expression: less
